Measured values published in PubChem BioAssay (NCI).
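Each compound was tested at five concentrations against cells in 96-well plates for 48 hours. Definition used: TGI = concentration required for complete inhibition of growth.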

Legend:
Assay in all cases: DTP human tumour cell line panel, 48 h
HCT-15 colon = tested on: HCT-15 colon
SK-OV-3 ovarian = tested on: SK-OV-3 ovarian
RXF 393 renal = tested on: RXF 393 renal
HCT-116 colon = tested on: HCT-116 colon
SF-295 CNS = tested on: SF-295 CNS
TK-10 renal = tested on: TK-10 renal
SW-620 colon = tested on: SW-620 colon
NCI-H460 lung = tested on: NCI-H460 lung
HOP-62 NSCLC = tested on: HOP-62 NSCLC
NCI-H522 lung = tested on: NCI-H522 lung
M14 melanoma = tested on: M14 melanoma
786-0 renal = tested on: 786-0 renal
A549 NSCLC = tested on: A549 NSCLC
SK-MEL-28 melanoma = tested on: SK-MEL-28 melanoma
UO-31 renal = tested on: UO-31 renal
OVCAR-8 ovarian = tested on: OVCAR-8 ovarian
UACC-257 melanoma = tested on: UACC-257 melanoma
SK-MEL-2 melanoma = tested on: SK-MEL-2 melanoma
MOLT-4 leukemia = tested on: MOLT-4 leukemia
UACC-62 melanoma = tested on: UACC-62 melanoma
U251 CNS = tested on: U251 CNS
OVCAR-5 ovarian = tested on: OVCAR-5 ovarian
NCI-H226 lung = tested on: NCI-H226 lung
SNB-19 CNS = tested on: SNB-19 CNS
SNB-75 CNS = tested on: SNB-75 CNS
OVCAR-3 ovarian = tested on: OVCAR-3 ovarian
SF-268 CNS = tested on: SF-268 CNS
NCI-H23 lung = tested on: NCI-H23 lung
SK-MEL-5 melanoma = tested on: SK-MEL-5 melanoma
PC-3 prostate = tested on: PC-3 prostate
EKVX NSCLC = tested on: EKVX NSCLC
MDA-MB-435 = tested on: MDA-MB-435
ACHN renal = tested on: ACHN renal
OVCAR-4 ovarian = tested on: OVCAR-4 ovarian
RPMI-8226 leukemia = tested on: RPMI-8226 leukemia
COLO 205 colon = tested on: COLO 205 colon
MCF7 breast = tested on: MCF7 breast
A498 renal = tested on: A498 renal
MDA-MB-231 breast = tested on: MDA-MB-231 breast
SR leukemia = tested on: SR leukemia
BT-549 breast = tested on: BT-549 breast
IGROV1 ovarian = tested on: IGROV1 ovarian
SN12C renal = tested on: SN12C renal
MALME-3M melanoma = tested on: MALME-3M melanoma
NCI/ADR-RES ovarian = tested on: NCI/ADR-RES ovarian
LOX IMVI melanoma = tested on: LOX IMVI melanoma
K-562 leukemia = tested on: K-562 leukemia
CCRF-CEM leukemia = tested on: CCRF-CEM leukemia
DU-145 prostate = tested on: DU-145 prostate
MDA-N = tested on: MDA-N
HT29 colon = tested on: HT29 colon
KM12 colon = tested on: KM12 colon
CAKI-1 renal = tested on: CAKI-1 renal
SF-539 CNS = tested on: SF-539 CNS
HCC-2998 colon = tested on: HCC-2998 colon
HL-60(TB) leukemia = tested on: HL-60(TB) leukemia
HS 578T breast = tested on: HS 578T breast
HOP-92 NSCLC = tested on: HOP-92 NSCLC
T-47D breast = tested on: T-47D breast

Measured: TGI

COC(=O)C1=C(C(=O)OC)C2CCC1CC2=O (centres undefined)
not listed: HL-60(TB) leukemia | HS 578T breast | HOP-92 NSCLC | T-47D breast
> 100 µM: all other assays above

CN(CC(=O)O)Cc1c[nH]c2ccccc12
not listed: HCC-2998 colon | T-47D breast
> 100 µM: all other assays above

CCN(CC)C(=O)CCNC(C)Cc1c[nH]c2ccccc12 (centres undefined)
not listed: MCF7 breast | BT-549 breast
> 100 µM: all other assays above
